Data published in patent publication US12209081B2 (Katholieke Universiteit Leuven, priority 2020, dated 2025).

target: mouse TRPM3α2 (mTRPM3) ion channel (Mus musculus (Mouse), UniProt J9SQF3); experiment: TRPM3 ion channel driven Ca2+ uptake, Fluo-4 AM assay, mTRPM3alpha2 overexpressing flip-in HEK293 cells stimulated with pregnenolone sulfate; format: cell-based; settings: PS 50 μM, cpds 200-299
Procedure: Part B Monitoring the TRPM3 Ion Channel Driven Ca^2+ Uptake.
In order to monitor the inhibition of the mouse TRPM3α2 (mTRPM3) ion channel by the compounds of the invention, a cellular system making use of an mTRPM3alpha2 or hTRPM3 overexpressing cell line (flip-in HEK293) was used. The TRPM3 channel was stimulated/opened with Pregnenolone sulfate (PS) (50 μM) which results in Ca^2+ influx.
For mTRPM3, the intracellular Ca^2+ was measured with a Calcium responsive dye. Fluor-4 AM ester (Invitrogen). Cells were cultured until a confluence of 80-90%, washed with Versene (Invitrogen) and detached from the surface by a short incubation with 0.05% Trypsin (Invitrogen). The trypsination process was stopped by the addition of complete cell culture medium (DMEM, glutamax, 10% FCS,NEAA,Pen-Strep). Cells were collected and resuspended in Krebs buffer without Calcium at RT.
Prior the cell seeding (±2000 cells/well into a black, 384 well plate (Greiner)) the diluted compound was added in the assay plate, together with the PS dissolved in Krebs buffer containing Calcium. […] Directly after cell addition the plates were read on an Envision fluorescence reader (Perkin Elmer) by an Excitation of 485 nm and emission at 535 nm.
Channel inhibition was calculated compared to a non-PS stimulated control versus a condition stimulated with PS (50 μM) with vehicle. The ability of the compounds of the invention to inhibit this activity was determined as: Percentage inhibition=[1-((RFU determined for sample with test compound present—RFU determined for sample with positive control inhibitor) divided by (RFU determined in the presence of vehicle—RFU determined for sample with positive control inhibitor))]*100.

Sequence of mouse TRPM3α2 (mTRPM3) ion channel (J9SQF3 other isoform, or with tags, fused parts or gaps): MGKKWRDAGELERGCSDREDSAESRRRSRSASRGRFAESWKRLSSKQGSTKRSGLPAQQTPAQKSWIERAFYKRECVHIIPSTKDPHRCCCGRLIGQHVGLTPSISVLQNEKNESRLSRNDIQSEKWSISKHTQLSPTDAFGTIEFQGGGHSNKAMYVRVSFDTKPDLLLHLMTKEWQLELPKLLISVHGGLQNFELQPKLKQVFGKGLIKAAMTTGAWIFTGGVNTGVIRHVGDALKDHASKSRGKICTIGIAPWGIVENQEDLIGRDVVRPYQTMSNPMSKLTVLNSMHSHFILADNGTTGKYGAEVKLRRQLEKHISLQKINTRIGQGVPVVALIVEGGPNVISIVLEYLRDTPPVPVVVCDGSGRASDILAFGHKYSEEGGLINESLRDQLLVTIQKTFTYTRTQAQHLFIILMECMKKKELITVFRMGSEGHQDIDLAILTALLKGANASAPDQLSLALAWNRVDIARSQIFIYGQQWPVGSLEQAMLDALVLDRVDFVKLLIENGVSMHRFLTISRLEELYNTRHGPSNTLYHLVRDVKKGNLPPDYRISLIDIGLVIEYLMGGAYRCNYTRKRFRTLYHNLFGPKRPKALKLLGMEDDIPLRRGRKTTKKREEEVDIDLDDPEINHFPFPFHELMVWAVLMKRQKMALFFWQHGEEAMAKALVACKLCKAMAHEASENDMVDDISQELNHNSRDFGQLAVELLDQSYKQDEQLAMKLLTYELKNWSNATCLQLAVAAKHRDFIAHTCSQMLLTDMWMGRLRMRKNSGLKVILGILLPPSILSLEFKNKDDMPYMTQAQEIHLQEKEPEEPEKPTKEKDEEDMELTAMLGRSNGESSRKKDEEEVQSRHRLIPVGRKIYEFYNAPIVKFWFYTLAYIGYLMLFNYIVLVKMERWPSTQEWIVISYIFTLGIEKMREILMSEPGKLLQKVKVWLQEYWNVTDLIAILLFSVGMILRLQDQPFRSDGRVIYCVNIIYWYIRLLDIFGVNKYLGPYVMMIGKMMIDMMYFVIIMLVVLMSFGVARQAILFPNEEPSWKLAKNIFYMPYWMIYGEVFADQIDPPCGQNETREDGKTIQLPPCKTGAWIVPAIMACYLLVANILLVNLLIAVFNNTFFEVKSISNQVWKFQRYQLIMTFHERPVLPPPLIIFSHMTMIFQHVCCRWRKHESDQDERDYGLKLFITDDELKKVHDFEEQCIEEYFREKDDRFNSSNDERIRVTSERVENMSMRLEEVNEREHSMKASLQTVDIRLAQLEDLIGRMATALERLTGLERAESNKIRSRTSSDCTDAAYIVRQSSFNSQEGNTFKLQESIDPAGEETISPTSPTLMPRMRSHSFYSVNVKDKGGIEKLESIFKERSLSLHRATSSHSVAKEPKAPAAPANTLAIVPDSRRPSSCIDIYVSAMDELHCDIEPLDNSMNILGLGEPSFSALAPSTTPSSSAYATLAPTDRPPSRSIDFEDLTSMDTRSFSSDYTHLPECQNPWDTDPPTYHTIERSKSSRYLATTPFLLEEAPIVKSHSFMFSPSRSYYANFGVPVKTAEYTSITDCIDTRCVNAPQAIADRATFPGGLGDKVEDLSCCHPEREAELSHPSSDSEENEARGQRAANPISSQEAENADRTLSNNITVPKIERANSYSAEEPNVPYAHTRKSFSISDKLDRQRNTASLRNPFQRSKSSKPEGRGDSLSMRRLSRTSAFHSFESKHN

| IC50 [µM] | Compound |
| --- | --- |
| 1 to 20 | Cc1oc2ccc(OCc3nccn3C)cc2c1C(=O)NC1CCNCC1(F)F (single isomer, unassigned) [cpd 205-En 1] |
| < 1 | Cc1oc2ccc(OCc3nccn3C)cc2c1C(=O)NC1CCNCC1(F)F (single isomer, unassigned) [cpd 205-En 2] |
| < 1 | CCOc1ncccc1COc1ccc2oc(C)c(C(=O)NC3CCNCC3(F)F)c2c1 (single isomer, unassigned) [cpd 207-En 1] |
| > 20 | Cc1ncsc1COc1ccc2oc(C)c(C(=O)NC(CO)C(=O)O)c2c1 (single isomer, unassigned) [cpd 270-En 1] |

same assay, conditions: PS 50 μM, cpds 300-399

| IC50 [µM] | Compound |
| --- | --- |
| < 1 | Cc1ncsc1COc1ccc2oc(C(F)F)c(C(=O)NC3CCNCC3(F)F)c2c1 (single isomer, unassigned) [cpd 310-En 1] |
| < 1 | Cc1ncsc1COc1ccc2oc(C(F)F)c(C(=O)NC3CCNCC3(F)F)c2c1 (single isomer, unassigned) [cpd 310-En 2] |
| < 1 | O=C(NC1CCNCC1(F)F)c1c(C2CC2)oc2ccc(OCc3cccnc3C(F)(F)F)cc12 (single isomer, unassigned) [cpd 313-En 1] |
| 1 to 20 | O=C(NC1CCNCC1(F)F)c1c(C2CC2)oc2ccc(OCc3cccnc3C(F)(F)F)cc12 (single isomer, unassigned) [cpd 313-En 2] |
| < 1 | Cc1ncsc1COc1ccc2oc(C)c(C(=O)NC(C)c3ncco3)c2c1 (single isomer, unassigned) [cpd 315-En 1] |
| < 1 | Cc1ncsc1COc1ccc2oc(C)c(C(=O)NC(CO)C(F)(F)F)c2c1 (single isomer, unassigned) [cpd 316-En 1] |
| < 1 | Cc1ncsc1COc1ccc2oc(C)c(C(=O)NC3COCCNC3=O)c2c1 (single isomer, unassigned) [cpd 317-En 1] |
| < 1 | Cc1oc2ccc(OCc3cccnc3N3CCC3)cc2c1C(=O)NC1CCNCC1(F)F (single isomer, unassigned) [cpd 336-En 1] |
| < 1 | Cc1oc2ccc(OCc3cccnc3OC(F)F)cc2c1C(=O)NC1CCNCC1(F)F (single isomer, unassigned) [cpd 338-En 1] |
| < 1 | Cc1oc2ccc(OCc3cccnc3OC(F)F)cc2c1C(=O)NC1CCNCC1(F)F (single isomer, unassigned) [cpd 338-En 2] |
| < 1 | Cc1oc2ccc(OCc3cccnc3C(F)F)cc2c1C(=O)NC1CCNCC1(F)F (single isomer, unassigned) [cpd 342-En 1] |

same assay, conditions: PS (50 μM) stimulated, cpd 001-199

| IC50 [µM] | Compound |
| --- | --- |
| < 1 | Cc1ncsc1COc1ccc2oc(C)c(C(=O)NC3CNCCC3(F)F)c2c1 (single isomer, unassigned) [cpd 103-En 1] |
| < 1 | Cc1oc2ccc(OCc3cccnc3C(F)(F)F)cc2c1C(=O)NC1CNCC1(F)F (single isomer, unassigned) [cpd 105-En 1, N-(4,4-difluoropyrrolidin-3-yl)-2-methyl-5-((2-(trifluoromethyl)pyridin-3-yl)methoxy)benzofuran-3-carboxamide] |
| < 1 | Cc1ncsc1COc1ccc2oc(C)c(C(=O)NC3CNCC3(F)F)c2c1 (single isomer, unassigned) [cpd 106-En 1] |
| < 1 | Cc1oc2ccc(OCc3cccnc3C(F)(F)F)cc2c1C(=O)NC1CNCCC1(F)F (single isomer, unassigned) [cpd 111-En 1] |
| < 1 | Cc1oc2ccc(OCc3cccnc3C(F)(F)F)c(F)c2c1C(=O)NC1CCNCC1(F)F (single isomer, unassigned) [cpd 112-En 1, N-(3,3-difluoropiperidin-4-yl)-4-fluoro-2-methyl-5-((2-(trifluoromethyl)pyridin-3-yl)methoxy) -benzofuran-3-carboxamide] |
| < 1 | Cc1ncsc1COc1ccc2oc(C)c(C(=O)NC3CNCC(F)(F)C3)c2c1 (single isomer, unassigned) [cpd 115-En 1] |
| < 1 | Cc1oc2ccc(OCc3cccnc3C(F)(F)F)cc2c1C(=O)NC1CNCC(F)(F)C1 (single isomer, unassigned) [cpd 125-En 1] |
| < 1 | Cc1ncsc1COc1ccc2oc(C)c(C(=O)NC3(CO)CCOC3)c2c1 (single isomer, unassigned) [cpd 132-En 1] |
| < 1 | Cc1oc2ccc(OCc3cccnc3C(F)(F)F)cc2c1C(=O)NC1(CO)CCOC1 (single isomer, unassigned) [cpd 135-En 1] |
| < 1 | Cc1oc2ccc(OCc3cccnc3C(F)(F)F)cc2c1C(=O)NC1CCOC1 (single isomer, unassigned) [cpd 148-En 1] |
| < 1 | Cc1ncsc1COc1ccc2oc(C)c(C(=O)NC3CCOC3)c2c1 (single isomer, unassigned) [cpd 159-En 1] |
| 1 to 20 | Cc1oc2c(F)cc(OCc3cccnc3C(F)(F)F)cc2c1C(=O)NC1CCNCC1(F)F (single isomer, unassigned) [cpd 176-En 1, N-(3,3-difluoropiperidin-4-yl)-7-fluoro-2-methyl-5-((2-(trifluoro-methyl)pyridin-3-yl)methoxy)benzofuran-3-carboxamide] |
| < 1 | Cc1oc2c(F)cc(OCc3cccnc3C(F)(F)F)cc2c1C(=O)NC1CCNCC1(F)F (single isomer, unassigned) [cpd 176-En 2, N-(3,3-difluoropiperidin-4-yl)-7-fluoro-2-methyl-5-((2-(trifluoro-methyl)pyridin-3-yl)methoxy)benzofuran-3-carboxamide] |

same assay, conditions: PS (50 μM) stimulated, cpds. 400-499

| IC50 [µM] | Compound |
| --- | --- |
| 1 to 20 | Cc1ncc(COc2ccc3oc(C)c(C(=O)NC(Cn4cncn4)C(N)=O)c3c2)s1 (single isomer, unassigned) [432-En 1, N-(1-amino-1-oxo-3-(1H-1,2,4-triazol-1-yl)propan-2-yl)-2-methyl-5-((2-methylthiazol-5-yl)methoxy)benzofuran-3-carboxamide] |
| < 1 | Cc1ncc(COc2ccc3oc(C)c(C(=O)NC(Cn4cncn4)C(N)=O)c3c2)s1 (single isomer, unassigned) [432-En 2, N-(1-amino-1-oxo-3-(1H-1,2,4-triazol-1-yl)propan-2-yl)-2-methyl-5-((2-methylthiazol-5-yl)methoxy)benzofuran-3-carboxamide] |
| < 1 | Cc1ncc(COc2ccc3oc(C)c(C(=O)NC(COC(F)F)C(N)=O)c3c2)s1 (single isomer, unassigned) [447-En 1, N-(1-amino-3-(difluoromethoxy)-1-oxopropan-2-yl)-2-methyl-5-((2-methylthiazol-5-yl)methoxy)benzofuran-3-carboxamide] |
| 1 to 20 | Cc1ncc(COc2ccc3oc(C)c(C(=O)NC(CO)c4nc5ccccc5[nH]4)c3c2)s1 (single isomer, unassigned) [cpd 401-En 2] |
| < 1 | Cc1oc2ccc(OCc3cccnc3C(F)(F)F)cc2c1C(=O)NC(C)CO (single isomer, unassigned) [cpd 489-En 2] |
| < 1 | Cc1ncc(COc2ccc3oc(C)c(C(=O)NC(C)CO)c3c2)s1 (single isomer, unassigned) [cpd 490-En 1] |
| < 1 | Cc1ncsc1COc1ccc2oc(C)c(C(=O)NC(C)CO)c2c1 (single isomer, unassigned) [cpd 491-En 1] |

same assay, conditions: PS (50 μM) stimulated, cpds. 500-599

| IC50 [µM] | Compound |
| --- | --- |
| 1 to 20 | Cc1ncc(COc2ccc3oc(C)c(C(=O)NC4(CO)CCNC4)c3c2)s1 (single isomer, unassigned) [530-En 1, N-(3-(hydroxymethyl)pyrrolidin-3-yl)-2-methyl-5-((2-methylthiazol-5-yl)methoxy)benzofuran-3-carboxamide] |
| < 1 | Cc1ncc(COc2ccc3oc(C)c(C(=O)NC4(CO)CCNC4)c3c2)s1 (single isomer, unassigned) [530-En 2, N-(3-(hydroxymethyl)pyrrolidin-3-yl)-2-methyl-5-((2-methylthiazol-5-yl)methoxy)benzofuran-3-carboxamide] |
| < 1 | Cc1oc2ccc(OCc3cccnc3C(F)(F)F)cc2c1C(=O)NC1(CO)CCCOC1 (single isomer, unassigned) [cpd 531-En 1] |
| < 1 | Cc1ncsc1COc1ccc2oc(C)c(C(=O)NC3(CO)CCCOC3)c2c1 (single isomer, unassigned) [cpd 532-En 1] |
| < 1 | Cc1ncc(COc2ccc3oc(C)c(C(=O)NC4(CO)CCOC4)c3c2)s1 (single isomer, unassigned) [cpd 533-En 1] |
| < 1 | Cc1oc2ccc(OCc3ccccn3)cc2c1C(=O)NC1(CO)CCOC1 (single isomer, unassigned) [cpd 534-En 1] |
| < 1 | Cc1oc2ccc(OCc3cccnc3O)cc2c1C(=O)NC1(CO)CCOC1 (single isomer, unassigned) [cpd 535-En 1] |
| < 1 | COc1ncccc1COc1ccc2oc(C)c(C(=O)NC3(CO)CCOC3)c2c1 (single isomer, unassigned) [cpd 536-En 1] |

same assay, conditions: PS (50 μM) stimulated, cpds. 667-751

| IC50 [µM] | Compound |
| --- | --- |
| < 1 | Cc1oc2ccc(OCc3c[nH]nc3C(F)(F)F)cc2c1C(=O)NC1(CO)CCNC1=O (single isomer, unassigned) [730-En 1, N-(3-(Hydroxymethyl)-2-oxopyrrolidin-3-yl)-2-methyl-5-((3-(trifluoromethyl)-1H-pyrazol-4-yl)methoxy)benzofuran-3-carboxamide] |
